# Measurements taken from patent publication US20060147411A1, “Novel compounds for the treatment of sickle cell disease” (University of Maryland, Baltimore, priority 2003, published 2006).
# How the values were obtained:
# [1] = target: cytochrome b5; settings: read-out: affinity of binding to cytochrome b5; cited from earlier work
# [2] = target: cytochrome b5 (Rattus norvegicus, UniProt P00173); experiment: HSQC perturbation mapping: concentration dependence of hexacyclen-induced heteronuclear correlation peak shifts; format: binding; settings: 1H-15N HSQC peak shifts, hexacyclen 0.5 to 8 mM, pH 7.0, 1 mM phosphate buffer, 40° C; read-out: dissociation constant
# Chain of cytochrome b5 (Rattus norvegicus, UniProt P00173) (P00173 whole entry): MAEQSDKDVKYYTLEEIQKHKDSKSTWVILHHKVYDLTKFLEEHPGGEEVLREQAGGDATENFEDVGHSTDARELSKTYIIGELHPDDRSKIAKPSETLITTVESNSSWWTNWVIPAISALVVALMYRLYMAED
# Experimental: Hexacyclen (1,4,7,10,13,16-hexaazacyclooctadecane)(Richman, J. E.; Atkins, T. J. 1974, J. Am. Chem. Soc., 96, 2268-2269) binds to cytochrome b5 such the HSQC spectra of cytochrome b5-hexacyclen is similar to the HSQC spectra of cytochrome b5-hemoglobin. The concentration dependence of hexacyclen-induced heteronuclear correlation peak shifts indicates a dissociation constant of roughly 2 mM. FIG. 2 illustrates the heteronuclear correlation spectra (HSQC spectra) of a 2 mM solution of cytochrome b5 by itself (black contours) and that of a solution containing 2 mM cytochrome b5 and 4 mM hexacyclen (gray contours). The inset in the upper left hand corner of the figure contains a plot of the hexacyclen dependence of the shifts in the peak to peak separation of aspartate 60 (D60) at concentrations of hexacylen ranging from 0.5 to 8 mM. The inset at the upper right is a model for the interaction of hexacyclen based on the shifts observed in the HSQC perturbation study. Solutions were buffered to a pH of 7.0 with 1 mM phosphate buffer and the spectra were recorded at 40° C. […]
# The binding of the R1 and R3 moieties to cytochrome b5 is characterized using HSQC perturbation mapping experiments. […] Solutions were buffered to a pH of 7.0 with 1 mM phosphate buffer and the spectra were recorded at 40° C. […]
# [3] = system: sickle cell patients; settings: nearly 300 sickle cell patients; cited from earlier work
compound,measurement,setting,value
"Nc1ncnc2c1ncn2[C@H]1O[C@@H](COP(=O)(O)OP(=O)(O)OP(=O)(O)O)C(O)C1O (stereo partly drawn) [ATP, Adenosine 5′-triphosphate]",Kd,[1],180 µM
"C1CNCCNCCNCCNCCNCCN1 [Hexacyclen, 1,4,7,10,13,16-hexaazacyclooctadecane]",Kd,[2],~2 mM
NC(=O)NO [hydroxyurea],"occurrence of vaso-occlusive crises, reduced to % of that observed",[3],roughly 50%
